Key:
Type in all cases: biochemical
GST-PLK2 = molecular target: T1, GST-PLK2 (Homo sapiens, UniProt Q9NYY3); experiment: PLK TR-FRET peptide assay, PLK2; settings: for IC50: PLK TR-FRET peptide assay, GST-PLK2, read-out: Plk2 IC50; for PLK2 activity relative to the opposite enantiomer / other isomer: comparison of resolved enantiomers, used to assign absolute configuration
T1 construct: purchased CarnaBio

GST-PLK1 = GST-PLK1 (Homo sapiens, UniProt P53350); experiment: PLK TR-FRET peptide assay, PLK1; settings: read-out: Plk1 IC50
Chain of GST-PLK1 (P53350 whole entry): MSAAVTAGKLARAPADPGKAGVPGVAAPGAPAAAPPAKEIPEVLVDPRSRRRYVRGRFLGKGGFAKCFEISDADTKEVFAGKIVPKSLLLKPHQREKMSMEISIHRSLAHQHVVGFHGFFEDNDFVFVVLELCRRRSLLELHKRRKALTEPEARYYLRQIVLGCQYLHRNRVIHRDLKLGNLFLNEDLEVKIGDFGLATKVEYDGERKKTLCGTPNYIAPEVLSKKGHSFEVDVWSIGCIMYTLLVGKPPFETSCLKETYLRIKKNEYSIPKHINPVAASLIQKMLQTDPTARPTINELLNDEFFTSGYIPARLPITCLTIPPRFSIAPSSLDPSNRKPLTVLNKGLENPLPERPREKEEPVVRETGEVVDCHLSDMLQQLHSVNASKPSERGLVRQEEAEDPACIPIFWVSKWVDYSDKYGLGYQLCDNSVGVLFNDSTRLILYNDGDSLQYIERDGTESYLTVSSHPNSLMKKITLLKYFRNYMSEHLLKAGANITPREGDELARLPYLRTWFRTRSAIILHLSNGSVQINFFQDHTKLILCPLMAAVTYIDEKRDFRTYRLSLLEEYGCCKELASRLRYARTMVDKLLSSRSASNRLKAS

GST-PLK3 = molecular target: T2, GST-PLK3 (Homo sapiens, UniProt Q9H4B4); experiment: PLK TR-FRET peptide assay, PLK3; settings: PLK TR-FRET peptide assay, GST-PLK3; read-out: Plk3 IC50
T2 construct: purchased CarnaBio
T2 sequence (Q9H4B4 whole entry): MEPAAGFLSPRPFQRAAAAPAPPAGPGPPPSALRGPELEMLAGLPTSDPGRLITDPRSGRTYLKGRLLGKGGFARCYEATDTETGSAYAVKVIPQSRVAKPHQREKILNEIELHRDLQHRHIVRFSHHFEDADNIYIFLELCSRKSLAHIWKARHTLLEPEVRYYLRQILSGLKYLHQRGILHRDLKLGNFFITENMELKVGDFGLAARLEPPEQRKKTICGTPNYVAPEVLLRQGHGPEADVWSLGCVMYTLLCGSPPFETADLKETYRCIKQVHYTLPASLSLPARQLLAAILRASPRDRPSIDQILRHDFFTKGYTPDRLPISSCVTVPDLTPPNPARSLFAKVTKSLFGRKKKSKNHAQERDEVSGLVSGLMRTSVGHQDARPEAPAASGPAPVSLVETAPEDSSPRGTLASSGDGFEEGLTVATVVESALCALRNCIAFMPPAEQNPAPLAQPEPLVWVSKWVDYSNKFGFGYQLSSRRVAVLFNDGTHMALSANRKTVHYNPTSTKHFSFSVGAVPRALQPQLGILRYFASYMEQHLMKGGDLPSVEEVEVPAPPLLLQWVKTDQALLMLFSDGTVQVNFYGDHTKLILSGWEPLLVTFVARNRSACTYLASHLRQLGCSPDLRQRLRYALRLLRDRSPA

T1 sequence (Q9NYY3 whole entry): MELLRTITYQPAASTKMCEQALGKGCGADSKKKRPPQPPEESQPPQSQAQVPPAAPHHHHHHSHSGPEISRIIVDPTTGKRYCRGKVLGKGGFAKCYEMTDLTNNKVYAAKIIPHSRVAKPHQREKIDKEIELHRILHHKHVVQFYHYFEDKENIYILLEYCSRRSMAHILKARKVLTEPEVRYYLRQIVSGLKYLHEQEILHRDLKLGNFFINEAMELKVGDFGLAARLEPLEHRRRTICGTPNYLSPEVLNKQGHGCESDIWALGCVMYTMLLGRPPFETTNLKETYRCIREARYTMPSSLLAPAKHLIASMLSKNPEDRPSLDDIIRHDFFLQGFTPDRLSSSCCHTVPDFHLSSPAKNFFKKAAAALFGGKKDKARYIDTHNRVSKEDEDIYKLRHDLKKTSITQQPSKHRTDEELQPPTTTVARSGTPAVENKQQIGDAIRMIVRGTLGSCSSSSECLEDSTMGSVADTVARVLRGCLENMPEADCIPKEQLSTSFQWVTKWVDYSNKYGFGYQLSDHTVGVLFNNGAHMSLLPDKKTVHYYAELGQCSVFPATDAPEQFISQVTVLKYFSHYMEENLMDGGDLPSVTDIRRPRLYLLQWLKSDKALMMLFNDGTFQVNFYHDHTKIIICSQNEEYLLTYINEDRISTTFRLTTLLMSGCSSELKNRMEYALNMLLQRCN

Structure (SMILES)	IC50 (GST-PLK2)	IC50 (GST-PLK1)	IC50 (GST-PLK3)	PLK2 activity relative to the opposite enantiomer / other isomer (GST-PLK2)
CC[C@@]12COCCN1c1nc(-n3ccnc3-c3ccccc3)ncc1N(C)C2=O (single isomer, unassigned) [Example 314]	< 1000 nM	> 50 µM	1 to 10 µM	–
CN1C(=O)[C@]2(C)CCCN2c2nc(-n3ccnc3-c3ccccc3)ncc21 [Example 80, (S)-5,6a-dimethyl-2-(2-phenyl-1H-imidazol-1-yl)-6a,7,8,9-tetrahydropyrrolo[2,1-h]pteridin-6(5H)-one]	< 1000 nM	10 to 50 µM	10 to 50 µM	–
CC[C@@]12COCCN1c1nc(-n3ccnc3-c3nccs3)ncc1N(C)C2=O [Example 387, (S)-6a-ethyl-5-methyl-2-(2-(thiazol-2-yl)-1H-imidazol-1-yl)-6a,7,9,10-tetrahydro-[1,4]oxazino[3,4-h]pteridin-6(5H)-one]	< 1000 nM	> 50 µM	> 50 µM	more active compound
CCC12CN(C)CCN1c1nc(-n3ccnc3-c3ccccc3)ncc1N(C)C2=O (racemic) [Example 371, 6a-ethyl-5,8-dimethyl-2-(2-phenyl-1H-imidazol-1-yl)-7,8,9,10-tetrahydro-5H-pyrazino[2,1-h]pteridin-6(6aH)-one]	< 1000 nM	> 50 µM	> 50 µM	–
CC[C@@]12COCCN1c1nc(-c3[nH]nnc3-c3ccccc3)ncc1N(C)C2=O [Example 373, (S)-6a-ethyl-5-methyl-2-(4-phenyl-1H-1,2,3-triazol-5-yl)-6a,7,9,10-tetrahydro-[1,4]oxazino[3,4-h]pteridin-6(5H)-one]	1000 to 10000 nM	10 to 50 µM	1 to 10 µM	–
CC[C@@H]1C(=O)N(C)c2cnc(-n3ccnc3-c3ccc(F)cc3)nc2N1c1ccn(C)n1 [Example 407, (R)-7-ethyl-2-(2-(4-fluorophenyl)-1H-imidazol-1-yl)-5-methyl-8-(1-methyl-1H-pyrazol-3-yl)-7,8-dihydropteridin-6(5H)-one]	< 1000 nM	1 to 10 µM	1 to 10 µM	more active compound
CCC1C(=O)N(C)c2cnc(-c3cn[nH]c3-c3nccs3)nc2N1c1cnn(CC2CC2)c1 (centres unmarked) [Example 400, 8-(1-(cyclopropylmethyl)-1H-pyrazol-4-yl)-7-ethyl-5-methyl-2-(5-(thiazol-2-yl)-1H-pyrazol-4-yl)-7,8-dihydropteridin-6(5H)-one]	< 1000 nM	1 to 10 µM	1 to 10 µM	–
CC[C@@H]1C(=O)N(C)c2cnc(-n3ncnc3-c3ccn[nH]3)nc2N1C(C)C [Example 327, (R)-2-(5-(1H-pyrazol-5-yl)-1H-1,2,4-triazol-1-yl)-7-ethyl-8-isopropyl-5-methyl-7,8-dihydropteridin-6(5H)-one]	< 1000 nM	< 1 µM	1 to 10 µM	–

Now from value to compound:

IC50 (GST-PLK2)	IC50 (GST-PLK1)	IC50 (GST-PLK3)	PLK2 activity relative to the opposite enantiomer / other isomer (GST-PLK2)	Structure (SMILES)
< 1000 nM	< 1 µM	< 1 µM	–	CC[C@@H]1C(=O)N(C)c2cnc(-c3cnoc3-c3ccccc3)nc2N1C1CCCC1 [Example 133, (R)-8-cyclopentyl-7-ethyl-5-methyl-2-(5-phenylisoxazol-4-yl)-7,8-dihydropteridin-6(5H)-one]
< 1000 nM	< 1 µM	< 1 µM	–	CC[C@@H]1C(=O)N(C)c2cnc(-c3cn[nH]c3-c3ccccn3)nc2N1C1CCCC1 [Example 306, (R)-8-cyclopentyl-7-ethyl-5-methyl-2-(5-(pyridin-2-yl)-1H-pyrazol-4-yl)-7,8-dihydropteridin-6(5H)-one]
< 1000 nM	< 1 µM	10 to 50 µM	–	CC[C@@H]1C(=O)N(C)c2cnc(-n3cnc(Br)c3)nc2N1C1CCCC1 [Example 43, (R)-2-(4-bromo-1H-imidazol-1-yl)-8-cyclopentyl-7-ethyl-5-methyl-7,8-dihydropteridin-6(5H)-one]
< 1000 nM	< 1 µM	1 to 10 µM	–	CC[C@@H]1C(=O)N(C)c2cnc(-n3cnc(C(N)=O)c3)nc2N1C1CCCC1 [Example 69, (R)-1-(8-cyclopentyl-7-ethyl-5-methyl-6-oxo-5,6,7,8-tetrahydropteridin-2-yl)-1H-imidazole-4-carboxamide]

— patent US8445503B2, “Inhibitors of polo-like kinase” (Elan Pharmaceuticals, Inc., priority 2009, dated 2013)
